Results published in patent US11013732B2, “Use of macroazapyridinophanes metal complexes in the treatment of diseases” (BIONOS BIOTECH, S.L, priority 2017, dated 2021).

Test system: Caenorhabditis elegans expressing 110Q::TdTomato in mechanosensory neurons
Assay: Gentle touch sensitivity in C. elegans' Huntington's disease model expressing 110Q::TdTomato
Assay type: in vivo
Conditions: 110Q::TdTomato animals without metal complex (II)
Protocol: The study was conducted to assess whether administration of metal complex (II) improves the neurosensitivity (gentle touch sensitivity) in Caenorhabditis elegans' (C. elegans) Huntington's disease model.
The initial and most generally used method to test for gentle touch sensitivity is to stroke animals with an eyebrow hair that has been glued to the end of a toothpick (FIG. 4).
C. elegans expressing 110CAG fused in frame with TdTomato in mechanosensory neurons aggregate and induced neural impairment were used. […] The tissue in light grey is the marker for transgenesis (i.e. green fluorescent protein (GFP) expressed in the pharynx).
The test was carried out using non-treated animals (expressing 110Q::TdTomato and thus showing neuronal impairment) as a control C, and animals treated with Metformin at 2 mM were used as a positive control. Each test was carried out treating animals (expressing 110Q::TdTomato showing neuronal impairment) with 5, 10 and 20 μM concentrations of metal complex (II), using non-treated animals as a control and animals treated with Metformin at a concentration of 2 mM as a positive control.
Finally, it was tested whether the rescue of the neuronal impairment due to 110Q::TdTomato expression shown with the treatment of metal complex (II) is produced by activation of autophagy. […]

**Q.** For `CCN(CC)CCCC(C)Nc1ccnc2cc(Cl)ccc12` (stereo not shown) [Chloroquine, reference compound], which “% of individuals showing touch response, chloroquine alone” value is on record?
**A.** does not induce additional touch response impairment
